A word on the MIC: it is the least concentration at which growth counts as inhibited. Low values mean greater potency, high ones weaker potency.

Positions of bridges follow the written chain, without caps; N, C: chain ends. Non-standard residues stand in square brackets, D forms with d. Residues, ends and D or L forms follow the SMILES beside them. *: point of attachment. Octanoyl = CCCCCCCC(=O)*; Dab = NCC[C@H](N)C(=O)O; Dap = NC[C@H](N)C(=O)O Some results are limits rather than exact numbers.

The subject of series [1] is K. pneumoniae. The procedure: (§1) The bacterial isolates were acquired from ATCC or the Canadian Ward Surveillance (CANWARD) study ([56]). CANWARD isolates were collected from infected patients admitted to participating medical centers across Canada.
(§2) The antibiotic or compound was serially diluted 2-fold in CAMHB on a 96-well plate and was incubated with equal volumes of bacterial inoculum overnight at 37°C. Wells containing only media were used as negative controls, and wells containing only bacteria were used as positive controls. Antibacterial activity was measured by the MIC, or the lowest concentration of agent required to inhibit visible bacterial growth. Turbidity was confirmed with a Molecular Devices (United States) EMax Plus microplate reader at a wavelength of 590 nm.

Series [2] deals with P. aeruginosa. As to the method:
as §1, §2

In series [3] the test system is HK-2. Type of series: cell-based, human. The following applies: 48 h. The procedure: (§3) Kidney cell lines, HK-2 (CRL-2190) and RPTEC/TERT1 (CRL-4031), and neural cell lines, U-87 MG (HTB-14) and SK-N-SH (HTB-11), were obtained from American Type Culture Collection (ATCC). HK-2 cells were cultured in T75 flasks with keratinocyte serum-free medium supplemented with bovine pituitary extract, human epidermal growth factor, and 2.5% FBS. RPTEC/TERT1 cells were cultured in T75 flasks with Dulbecco’s modified Eagle’s medium:F12 supplemented with the ATCC (United States) human telomerase reverse transcriptase immortalized RPTEC growth kit, G418 (0.1 mg/mL final concentration), and 2% FBS. Both U-87 MG and SK-N-SH cells were cultured in minimal essential media supplemented with 10% FBS. The cells were incubated in a humidified atmosphere at 5% CO2 and at 37°C.
(§4) The cytotoxicity of the compounds toward the mammalian cell lines was assessed using the cell viability assay protocols as previously described ([29]). Designated wells in 96-well plates were seeded with HK-2 (5,000 cells), RPTEC/TERT1 (8,000 cells), U-87 MG (7,000 cells), or SK-N-SH (8,000 cells) in 50 µL. Blank wells received an identical volume of only media. After incubating the cells for 24 h, all wells were treated with varying concentrations of the compound and incubated for 48 h. Subsequently, PrestoBlue reagent (Invitrogen, United States) was added to the wells to a final concentration of 10% (vol/vol), and the plate was incubated for an additional 1 h. Fluorescence was measured with a SpectraMax M2 plate reader (Molecular Devices, United States), at excitation and emission wavelengths of 560 and 590 nm, respectively. Values from the blank wells were subtracted from the corresponding wells containing cells. The cell viability relative to the controls with vehicle was calculated and presented as mean ± standard deviation of at least two experiments with five replicates each. CC50 values were obtained using GraphPad Prism (version 10.4.1) by non-linear regression (four-parameter logistic fit).

For series [4], the system named is SK-N-SH. Description: Cell viability assay (PrestoBlue). The series is classed as cell-based. Particulars: 24 h. As to the method:
as §3
as §4, with “After incubating the cells for 24 h, all wells were treated with varying concentrations of the compound and incubated for 48 h.” left out

Series [5] deals with U-87 MG. Nature of the series: Cell viability assay (PrestoBlue). Type of series: cell-based. The following applies: 24 h. As to the method: as §3
as §4, with “After incubating the cells for 24 h, all wells were treated with varying concentrations of the compound and incubated for 48 h.” left out

As to `CCCCCCCC(=O)N[C@@H](CN)C(=O)N[C@H](C(=O)N[C@@H](CN)C(=O)N[C@H]1CCNC(=O)[C@H]([C@@H](C)O)NC(=O)[C@H](CN)NC(=O)[C@H](CN)NC(=O)[C@H](CC(C)C)NC(=O)[C@@H](Cc2ccccc2)NC(=O)[C@H](CN)NC1=O)[C@@H](C)O` [Compound 1] (Octanoyl-[Dap]T[Dap][Dab][Dap][dF]L[Dap][Dap]T; lactam 4-C), the minimum inhibitory concentration (MIC) in series [1] and in series [2] was greater than 128 µg/mL in each case. For the same molecule, the “CC50 in HK-2” value in series [3] was found to be 238.7 µM. Further, the cell viability result in series [4] and in series [5] was “exceeding 100%” each time.

The record behind these values is paper PMC12587545, “Noncytotoxic polymyxin derivatives enhance antibiotic action against multidrug-resistant Gram-negative bacteria” (Antimicrobial Agents and Chemotherapy, 2025).
